Assay results reported in ChEMBL document CHEMBL4613240, “Pagoamide A, a Cyclic Depsipeptide Isolated from a Cultured Marine Chlorophyte, Derbesia sp., Using MS/MS-Based Molecular Networking” (J Nat Prod, 2020).
Active and inactive are the calls of the source. The rule behind the calls is not given here.

Assays:
Cerebral cortex neuron = assay: Modulation of calcium oscillation in Swiss-Webster gravid dams mouse cerebrocortical neurons measured for 2 mins on day 12 by fluo-3 AM dye based fluorescence assay; type: functional, cell-based
NCI-H460 = assay: Cytotoxicity against human NCI-H460 cells at 30 uM incubated for 48 hrs by MTT assay; type: functional, cell-based

Compound: CC(C)[C@@H]1NC(=O)[C@@H](Cc2ccccc2)NC(=O)[C@@H](C)NC(=O)[C@H](CO)NC(=O)[C@@H](NC(=O)[C@@H](CO)NC(=O)c2csc(CNC(=O)c3csc([C@H](C(C)C)N(C)C)n3)n2)[C@@H](C)OC(=O)[C@H](Cc2ccccc2)NC1=O
- Activity (Cerebral cortex neuron): inactive
- Activity (NCI-H460): inactive
